Reference: patent US9475817B2 (BRISTOL-MYERS SQUIBB COMPANY, priority 2012, dated 2016)

Legend:
CK1ε = CK1ε (Homo sapiens (Human), UniProt P49674); test: CK1ε kinase assay (Caliper LabChip, fluoresceinated peptide substrate); assay type: biochemical; details: 200 pM CK1ε, 50 μM ATP, 1.5 μM peptide substrate, 22 hours room temperature
Protocol: (§1) CK1ε and CK1δ Kinase Assays
(§2) The kinase assay was performed in V-bottom 384-well plates. […] The reaction was incubated at room temperature for 22 hours and terminated by adding 45 μl of 35 mM EDTA to each sample. […] Compounds were dissolved at 10 mM in dimethylsulfoxide (DMSO) and evaluated at eleven concentrations. IC50 values were derived by non-linear regression analysis.

CK1δ = CK1δ (Homo sapiens (Human), UniProt P48730); test: CK1δ kinase assay (Caliper LabChip, fluoresceinated peptide substrate); assay type: biochemical; details: 200 pM CK1δ, 50 μM ATP, 1.5 μM peptide substrate, 22 hours room temperature
Chain of CK1δ (P48730 whole entry): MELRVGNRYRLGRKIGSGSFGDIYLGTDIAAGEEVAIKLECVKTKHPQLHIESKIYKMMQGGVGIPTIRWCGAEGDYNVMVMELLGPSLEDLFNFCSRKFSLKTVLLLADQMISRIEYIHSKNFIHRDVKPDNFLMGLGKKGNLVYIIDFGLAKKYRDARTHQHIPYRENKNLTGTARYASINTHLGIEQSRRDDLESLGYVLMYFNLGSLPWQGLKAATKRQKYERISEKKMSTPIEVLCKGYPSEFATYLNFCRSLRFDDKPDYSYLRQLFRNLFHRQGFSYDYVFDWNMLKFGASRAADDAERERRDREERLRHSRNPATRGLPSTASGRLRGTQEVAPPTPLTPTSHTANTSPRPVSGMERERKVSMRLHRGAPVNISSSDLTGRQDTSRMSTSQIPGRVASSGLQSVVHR
Protocol: as §1, §2

Chain of CK1ε (P49674 whole entry): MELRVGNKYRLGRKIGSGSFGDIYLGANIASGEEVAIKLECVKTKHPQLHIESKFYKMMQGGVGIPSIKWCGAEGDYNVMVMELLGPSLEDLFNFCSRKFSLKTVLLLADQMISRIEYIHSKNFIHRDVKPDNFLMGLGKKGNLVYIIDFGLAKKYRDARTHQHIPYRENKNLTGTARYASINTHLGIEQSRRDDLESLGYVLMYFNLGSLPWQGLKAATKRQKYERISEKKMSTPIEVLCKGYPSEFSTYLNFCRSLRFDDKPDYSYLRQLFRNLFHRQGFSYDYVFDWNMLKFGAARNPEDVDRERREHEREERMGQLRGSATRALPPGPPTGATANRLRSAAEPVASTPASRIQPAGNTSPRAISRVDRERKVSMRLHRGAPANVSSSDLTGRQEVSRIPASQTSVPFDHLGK

| IC50 (CK1ε) [nM] | IC50 (CK1δ) [nM] | Molecule |
| --- | --- | --- |
| 3.7 | 0.74 | 2-fluoro-N-(6-(3-(4-fluorophenyl)-1- methyl-5-morpholino-1H-pyrazol-4-yl) imidazo[1,2-b]pyridazin-2-yl) isonicotinamide [Compound 144] |
| 7.4 | 5.2 | Cn1cc(-c2ccc3nc(NC(=O)c4ccncc4)cn3n2)c(-c2ccc(F)cc2)n1 [Compound 1, N-(6-(3-(4-Fluorophenyl)-1-methyl-1H-pyrazol-4-yl)imidazo[1,2-b]pyridazin-2-yl)isonicotinamide] |
| 19.2 | 1.3 | Cn1cc(-c2ccc3nc(NC(=O)c4cc(Cl)nc5ccccc45)cn3n2)c(-c2ccc(F)cc2)n1 [Compound 2, 2-chloro-N-(6-(3-(4-fluorophenyl)-1-methyl-1H-pyrazol-4-yl)imidazo[1,2-b]pyridazin-2-yl)quinoline-4-carboxamide] |
| 13.7 | 3.7 | Cc1nc(-c2ccncc2)sc1C(=O)Nc1cn2nc(-c3cn(C)nc3-c3ccc(F)cc3)ccc2n1 [Compound 4, N-(6-(3-(4-fluorophenyl)-1-methyl-1H-pyrazol-4-yl)imidazo[1,2-b]pyridazin-2-yl)-4-methyl-2-(pyridin-4-yl)thiazol-5-carboxamide] |
| 17.3 | 4.3 | Cc1nc(-c2ccccn2)sc1C(=O)Nc1cn2nc(-c3cn(C)nc3-c3ccc(F)cc3)ccc2n1 [Compound 6, N-(6-(3-(4-fluorophenyl)-1-methyl-1H-pyrazol-4-yl)imidazo[1,2-b]pyridazin-2-yl)-4-methyl-2-(pyridin-2-yl)thiazol-5-carboxamide] |
| 34.1 | 8.3 | Cc1nc(-c2ccccc2)sc1C(=O)Nc1cn2nc(-c3cn(C)nc3-c3ccc(F)cc3)ccc2n1 [Compound 7, N-(6-(3-(4-fluorophenyl)-1-methyl-1H-pyrazol-4-yl)imidazo[1,2-b]pyridazin-2-yl)-4-methyl-2-phenylthiazol-5-carboxamide] |
| 31.4 | 5.4 | Cn1cc(-c2ccc3nc(NC(=O)c4csc(-c5ccncc5)n4)cn3n2)c(-c2ccc(F)cc2)n1 [Compound 8, N-(6-(3-(4-fluorophenyl)-1-methyl-1H-pyrazol-4-yl)imidazo[1,2-b]pyridazin-2-yl)-2-(pyridin-4-yl)thiazole-4-carboxamide] |
| 899 | 24.6 | Cn1cc(-c2ccc3nc(NC(=O)c4csc(-c5ccc(Cl)cc5)n4)cn3n2)c(-c2ccc(F)cc2)n1 [Compound 11, 2-(4-chlorophenyl)-N-(6-(3-(4-fluorophenyl)-1-methyl-1H-pyrazol-4-yl)imidazo[1,2-b]pyridazin-2-yl)thiazol-4-carboxamide] |
| 28.8 | 7.3 | Cc1nocc1C(=O)Nc1cn2nc(-c3cn(C)nc3-c3ccc(F)cc3)ccc2n1 [Compound 12, N-(6-(3-(4-fluorophenyl)-1-methyl-1H-pyrazol-4-yl)imidazo[1,2-b]pyridazin-2-yl)-3-methylisoxazole-4-carboxamide] |
| 22.9 | 2.6 | Cn1cc(-c2ccc3nc(NC(=O)c4csc(Br)n4)cn3n2)c(-c2ccc(F)cc2)n1 [Compound 13, 2-bromo-N-(6-(3-(4-fluorophenyl)-1-methyl-1H-pyrazol-4-yl)imidazo[1,2-b]pyridazin-2-yl)thiazole-4-carboxamide] |
| 9.2 | 4.3 | Cn1cc(-c2ccc3nc(NC(=O)c4ccccc4F)cn3n2)c(-c2ccc(F)cc2)n1 [Compound 20, 2-fluoro-N-(6-(3-(4-fluorophenyl)-1-methyl-1H-pyrazol-4-yl)imidazo[1,2-b]pyridazin-2-yl)benzamide] |
| 15.2 | 3.7 | Cn1cc(-c2ccc3nc(NC(=O)c4ccno4)cn3n2)c(-c2ccc(F)cc2)n1 [Compound 22, N-(6-(3-(4-fluorophenyl)-1-methyl-1H-pyrazol-4-yl)imidazo[1,2-b]pyridazin-2-yl)isoxazole-5-carboxamide] |
| 8.6 | 2.6 | Cn1cc(-c2ccc3nc(NC(=O)c4cccc(F)c4)cn3n2)c(-c2ccc(F)cc2)n1 [Compound 23, 3-fluoro-N-(6-(3-(4-fluorophenyl)-1-methyl-1H-pyrazol-4-yl)imidazo[1,2-b]pyridazin-2-yl)benzamide] |
| 16.2 | 6.3 | Cn1cc(-c2ccc3nc(NC(=O)c4ccc(Cl)cc4F)cn3n2)c(-c2ccc(F)cc2)n1 [Compound 24, 4-chloro-2-fluoro-N-(6-(3-(4-fluorophenyl)-1-methyl-1H-pyrazol-4-yl)imidazo[1,2-b]pyridazin-2-yl)benzamide] |
| 14.5 | 7.4 | Cn1cc(-c2ccc3nc(NC(=O)c4ccnnc4)cn3n2)c(-c2ccc(F)cc2)n1 [Compound 25, N-(6-(3-(4-fluorophenyl)-1-methyl-1H-pyrazol-4-yl)imidazo[1,2-b]pyridazin-2-yl)pyridazine-4-carboxamide] |
| 6.6 | 3.1 | Cn1cc(-c2ccc3nc(NC(=O)c4cncs4)cn3n2)c(-c2ccc(F)cc2)n1 [Compound 28, N-(6-(3-(4-fluorophenyl)-1-methyl-1H-pyrazol-4-yl)imidazo[1,2-b]pyridazin-2-yl) thiazole-5-carboxamide] |
| 48.1 | 16 | Cn1cc(-c2ccc3nc(NC(=O)c4ncccn4)cn3n2)c(-c2ccc(F)cc2)n1 [Compound 29, N-(6-(3-(4-fluorophenyl)-1-methyl-1H-pyrazol-4-yl)imidazo[1,2-b]pyridazin-2-yl)pyrimidine-2-carboxamide] |
| 7.9 | 5.8 | Cn1cc(-c2ccc3nc(NC(=O)c4ccc(CN5CCCC5)cc4)cn3n2)c(-c2ccc(F)cc2)n1 [Compound 30, N-(6-(3-(4-fluorophenyl)-1-methyl-1H-pyrazol-4-yl)imidazo[1,2-b]pyridazin-2-yl)-4-(pyrrolidin-1-ylmethyl)benzamide] |
| 6.3 | 3.9 | CCN(CC)Cc1ccc(C(=O)Nc2cn3nc(-c4cn(C)nc4-c4ccc(F)cc4)ccc3n2)cc1 [Compound 31, 4-((diethylamino)methyl)-N-(6-(3-(4-fluorophenyl)-1-methyl-1H-pyrazol-4-yl)imidazo[1,2-b]pyridazin-2-yl)benzamide] |
| 98.3 | 10.1 | Cn1cc(-c2ccc3nc(NC(=O)c4cc(C(C)(C)C)ncn4)cn3n2)c(-c2ccc(F)cc2)n1 [Compound 32, 6-(tert-butyl)-N-(6-(3-(4-fluorophenyl)-1-methyl-1H-pyrazol-4-yl)imidazo[1,2-b]pyridazin-2-yl)pyrimidine-4-carboxamide] |
| 75.7 | – | COc1cc(C(=O)Nc2cn3nc(-c4cn(C)nc4-c4ccc(F)cc4)ccc3n2)nc(OC)n1 [Compound 39, N-(6-(3-(4-fluorophenyl)-1-methyl-1H-pyrazol-4-yl)imidazo[1,2-b]pyridazin-2-yl)-2,6-dimethoxypyrimidine-4-carboxamide] |
| – | 4.1 | Cn1cc(-c2ccc3nc(NC(=O)c4cncc(Cl)c4)cn3n2)c(-c2ccc(F)cc2)n1 [Compound 46, 5-chloro-N-(6-(3-(4-fluorophenyl)-1-methyl-1H-pyrazol-4-yl)imidazo[1,2-b]pyridazin-2-yl)nicotinamide] |
| 99.9 | – | Cn1cc(-c2ccc3nc(NC(=O)c4ccnc(C(C)(C)C)c4)cn3n2)c(-c2ccc(F)cc2)n1 [Compound 50, 2-(tert-butyl)-N-(6-(3-(4-fluorophenyl)-1-methyl-1H-pyrazol-4-yl)imidazo[1,2-b]pyridazin-2-yl)isonicotinamide] |
| – | 10.6 | COc1ncccc1C(=O)Nc1cn2nc(-c3cn(C)nc3-c3ccc(F)cc3)ccc2n1 [Compound 77, N-(6-(3-(4-fluorophenyl)-1-methyl-1H-pyrazol-4-yl)imidazo[1,2-b]pyridazin-2-yl)-2-methoxynicotinamide] |
| 11.3 | – | Cn1cc(-c2ccc3nc(NC(=O)C4CCCCC4)cn3n2)c(-c2ccc(F)cc2)n1 [Compound 87, N-(6-(3-(4-fluorophenyl)-1-methyl-1H-pyrazol-4-yl)imidazo[1,2-b]pyridazin-2-yl)cyclohexanecarboxamide] |
| 135 | – | CN1CCC(C(=O)Nc2cn3nc(-c4cn(C)nc4-c4ccc(F)cc4)ccc3n2)CC1 [Compound 90, N-(6-(3-(4-fluorophenyl)-1-methyl-1H-pyrazol-4-yl)imidazo[1,2-b]pyridazin-2-yl)-1-methylpiepridine-4-carboxamide] |
| – | 2.6 | Cn1cc(C(=O)Nc2cn3nc(-c4cn(C)nc4-c4ccc(F)cc4)ccc3n2)cn1 [Compound 98, N-(6-(3-(4-fluorophenyl)-1-methyl-1H-pyrazol-4-yl)imidazo[1,2-b]pyridazin-2-yl)-1-methyl-1H-pyrazole-4-carboxamide] |
| – | 0.5 | Cn1nc(-c2ccc(F)cc2)c(-c2ccc3nc(NC(=O)c4ccnc(F)c4)cn3n2)c1N1CCN(C(=O)C2CC2)CC1 [Compound 122, N-(6-(5-(4-(Cyclopropanecarbonyl)piperazin-1-yl)-3-(4-fluorophenyl)-1-methyl-1H-pyrazol-4-yl)imidazo[1,2-b]pyridazin-2-yl)-2-fluoroisonicotinamide] |
| – | 3.6 | Cn1nc(-c2ccc(F)cc2)c(-c2ccc3nc(NC(=O)c4ccncc4)cn3n2)c1C1CCN(Cc2cscn2)CC1 [Compound 171, N-(6-(3-(4-fluorophenyl)-1-methyl-5-(1-(thiazol-4-ylmethyl)piperidin-4-yl)-1H-pyrazol-4-yl)imidazo[1,2-b]pyridazin-2-yl) isonicotinamide] |

| Molecule | IC50 (CK1ε) [nM] | IC50 (CK1δ) [nM] |
| --- | --- | --- |
| Cn1nc(-c2ccc(F)cc2)c(-c2ccc3nc(NC(=O)c4ccnc(F)c4)cn3n2)c1N1CCOCC1 [Compound 143, 2-Fluoro-N-(6-(3-(4-fluorophenyl)-1-methyl-5-morpholino-1H-pyrazol-4-yl)imidazo[1,2-b]pyridazin-2-yl)isonicotinamide] | – | 2 |
